This is an account of results in patent publication EP4252780A1, “BIOLOGICALLY ACTIVE MATERIAL CONJUGATE HAVING BIOTIN MOIETY, FATTY ACID MOIETY, OR COMBINATION THEREOF COUPLED THERETO” (priority 2020, dated 2022).

Non-standard residues stand in square brackets, D forms with d. No end group written: not given here. F14 = C20-Glu-EG2-EG2-MAL; B38 = not defined here; Aib = CC(C)(N)C(=O)O

One experiment can be described thus: body weight change after 2 weeks of subcutaneous administration in obese mouse model. It is filed as in vivo. As to conditions: subcutaneous for 2 weeks, FIG. 10. The method, then: Conjugates 58 and 59 were subcutaneously administered for 2 weeks into an obese mouse model, then body weight changes were measured.
On to “Conjugate 59: polypeptide SEQ ID NO 8; biotin moiety B38 at K12; fatty acid moiety F14 at C30 (H[Aib]QGTFTSDYSK(B38)YLDEQAAKEFVQWLMNTC(F14); reading uncertain)”, for which the “body weight compared to the untreated group” value is “substantially reduced”.

Another experiment is described as follows: body weight reduction and feed intake over 24 hours after oral administration. Conditions: oral administration to mice. Format: in vivo.
In the case of “Polypeptide SEQ ID NO 24: amylin derivative KCNTATCATQRLANFLVHSSNNFGPILPPTNVGSNTY (Amylin derivative) [reference compound]”, the “Weight loss (%) compared to untreated group” value (shortened to “Weight loss (%)”) was -2.63 ± 1.06%.

Turning to “Conjugate 61: polypeptide SEQ ID NO 24; biotin moiety B38 at K1; fatty acid moiety F11 at K1 (K(B38)CNTATCATQRLANFLVHSSNNFGPILPPTNVGSNTY; ends and bridges not checked; also: fatty acid F11 also at K1, attachment order not given here)”, the “Weight loss (%)” value is -2.96 ± 4.22%.

Take “Polypeptide SEQ ID NO 30: amylin derivative RCNTATCATQRLADFLLRHSSNNFGAIPSSTNVGSKTY (RCNTATCATQRLADFLRHSSNNFGAIPSSTNVGSKTY; Amylin derivative) [reference compound]”: the “Weight loss (%)” value is recorded as -1.17 ± 0.76%.

With “Polypeptide SEQ ID NO 26: amylin derivative KCNTATCATQRLADFLLRHSSPNFGAIPSSTNVGSRTY (KCNTATCATQRLADFLRHSSPNFGAIPSSTNVGSRTY; Amylin derivative) [reference compound]”, the “Weight loss (%)” value is -3.13 ± 1.05%.

“Conjugate 33: polypeptide SEQ ID NO 24; biotin moiety B38 at K1 (K(B38)CNTATCATQRLANFLVHSSNNFGPILPPTNVGSNTY; ends and bridges not checked)”: the “Weight loss (%)” value is reported as -4.07 ± 1.30%.

As for “Polypeptide SEQ ID NO 28: amylin derivative KCNTATCATQRLADFLLRHSSNNFGAIPSSTNVGSRTY (KCNTATCATQRLADFLRHSSNNFGAIPSSTNVGSRTY; Amylin derivative) [reference compound]”, the “Weight loss (%)” value is on record as -1.11 ± 0.84%.
